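How tested: cells in 96-well plates exposed to compound for 48 hours at five concentrations. Definition used: TGI = concentration required for complete inhibition of growth.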

Among the test systems are HCC-2998 colon; HCT-116 colon; HS 578T breast; MDA-N; OVCAR-3 ovarian; SF-268 CNS; SK-MEL-2 melanoma; SK-MEL-28 melanoma; SNB-75 CNS; UACC-257 melanoma; UACC-62 melanoma.
Holding throughout (assay): DTP human tumour cell line panel, 48 h

As for `COc1ccc(/C=N/n2c(-c3ccccc3)n[nH]c2=O)cc1`, the TGI (in general, the concentration at which net growth stops) with HCC-2998 colon was > 100 µM; in the test with HCT-116 colon it was > 100 µM; with HS 578T breast, 93.7 µM; in the test on MDA-N it was > 100 µM; in the test on OVCAR-3 ovarian, > 100 µM; with SF-268 CNS, > 100 µM. The concentration for total growth inhibition (TGI) in the test with SK-MEL-2 melanoma, in the test with SK-MEL-28 melanoma, with SNB-75 CNS, in the test on UACC-257 melanoma and with UACC-62 melanoma was > 100 µM in each case.
As to `Cc1cn(CCCCCOC(=O)NC(CCCN=C(N)N)C(=O)O)c(=O)[nH]c1=O` (configuration not stated), the TGI in the test on HCC-2998 colon is > 100 µM; with HCT-116 colon, > 100 µM; in the test with HS 578T breast, 71.9 µM; with MDA-N, 31.3 µM; in the test with OVCAR-3 ovarian it was > 100 µM; in the test on SF-268 CNS it was > 100 µM. Moreover, the TGI in the test with SK-MEL-2 melanoma, in the test with SK-MEL-28 melanoma, with SNB-75 CNS, in the test with UACC-257 melanoma and in the test with UACC-62 melanoma was > 100 µM each time.
`COc1cccc2c1C(=O)c1c(O)c3c(c(O)c1C2=O)C[C@@](O)(C(=O)CO)C[C@@H]3OC1CC(N)C(OC)C(C)O1` (some centres not stated): the total growth inhibition concentration (TGI) in the test on HCC-2998 colon was 0.763 µM; in the test with HCT-116 colon it was > 100 µM; in the test with HS 578T breast, 1.14 µM; in the test on MDA-N it was 36.2 µM; in the test on OVCAR-3 ovarian it was 10.6 µM; in the test with SF-268 CNS it was 1.97 µM. The TGI is 0.407 µM in the test with SK-MEL-2 melanoma; 1.9 µM in the test on SK-MEL-28 melanoma; 0.346 µM with SNB-75 CNS; 1.34 µM in the test on UACC-257 melanoma; 0.227 µM in the test on UACC-62 melanoma.
As for `O=P(O)(Cc1ccccc1)c1ccccc1-c1ccccc1`, the TGI in the test with HCC-2998 colon, in the test with HCT-116 colon, with HS 578T breast, with MDA-N, in the test with SF-268 CNS and with SK-MEL-2 melanoma was > 100 µM throughout. Also, the TGI in the test on SK-MEL-28 melanoma, in the test with SNB-75 CNS, with UACC-257 melanoma and in the test with UACC-62 melanoma was > 100 µM in each case.
For `Oc1ccc(-c2nc(-c3ccc(F)cc3)c(-c3ccc4ccccc4n3)[nH]2)cc1`, the TGI stood at 15.3 µM in the test with HCC-2998 colon; 32.4 µM in the test with HCT-116 colon; 28.6 µM in the test with HS 578T breast; 27.9 µM in the test with MDA-N; 20.3 µM in the test with OVCAR-3 ovarian; 43.8 µM with SF-268 CNS. Moreover, the concentration for total growth inhibition (TGI) with SK-MEL-2 melanoma was 32.9 µM; in the test with SK-MEL-28 melanoma, 37.7 µM; with SNB-75 CNS it was 41.6 µM; in the test with UACC-257 melanoma, 26.3 µM; with UACC-62 melanoma it was 23.6 µM.
Regarding `COc1ccc(CCN=C2OCc3ccccc32)cc1OC`, the TGI with HCC-2998 colon was > 100 µM; with HCT-116 colon, 71.3 µM; in the test with HS 578T breast it was > 100 µM; in the test on MDA-N, > 100 µM; with SK-MEL-2 melanoma it was > 100 µM; with SK-MEL-28 melanoma, > 100 µM. Also, the concentration for total growth inhibition (TGI) in the test with SNB-75 CNS, in the test on UACC-257 melanoma and with UACC-62 melanoma was > 100 µM throughout.
For the compound `Cc1c(O)c(C)c2c(C)cn(C(=O)C(C)(C)C)c2c1C`, the TGI is 96.6 µM in the test with HCC-2998 colon; 45.3 µM in the test with HCT-116 colon; 77.2 µM with HS 578T breast; 38.8 µM in the test with MDA-N; > 100 µM in the test with OVCAR-3 ovarian; > 100 µM with SF-268 CNS. In addition, the TGI in the test with SK-MEL-2 melanoma stood at 43.4 µM; in the test with SK-MEL-28 melanoma, 28.7 µM; with SNB-75 CNS it was 34.1 µM; in the test on UACC-62 melanoma, 28.5 µM.
With `CCN(CC)C(=S)SS(=O)(=O)c1ccc(F)cc1`, the total growth inhibition concentration (TGI) in the test on HCC-2998 colon, in the test with HCT-116 colon, in the test on HS 578T breast, in the test on MDA-N, in the test with OVCAR-3 ovarian and in the test with SF-268 CNS was > 100 µM in each case. In addition, the TGI was > 100 µM with SK-MEL-2 melanoma, 30.5 µM in the test with SK-MEL-28 melanoma, 87.3 µM with UACC-257 melanoma and > 100 µM in the test on UACC-62 melanoma.
Regarding `COc1ccc(OC)c(N2C(=O)CSC2c2cc(OC)c(OC)c(OC)c2)c1` (configuration not stated), the TGI in the test with HCC-2998 colon, with HCT-116 colon, with HS 578T breast, in the test with MDA-N, with OVCAR-3 ovarian and with SF-268 CNS was > 100 µM throughout. In addition, the TGI in the test with SK-MEL-2 melanoma, in the test on SK-MEL-28 melanoma, in the test on UACC-257 melanoma and in the test with UACC-62 melanoma was > 100 µM throughout.
Regarding `CCOP(=O)(O)C(C)(C)NC`, the TGI in the test on HCC-2998 colon, in the test with HCT-116 colon, in the test with HS 578T breast, with MDA-N, with OVCAR-3 ovarian and in the test with SF-268 CNS was > 100 µM in each case. In addition, the TGI with SK-MEL-2 melanoma, with SK-MEL-28 melanoma, in the test on UACC-257 melanoma and in the test on UACC-62 melanoma was > 100 µM throughout.
In the case of `Cc1ccc(C(=O)N/N=C(\N=Nc2ccccc2[N+](=O)[O-])c2ccc(N(C)C)cc2)cc1`, the TGI in the test with HCC-2998 colon, with HCT-116 colon, in the test with HS 578T breast, in the test on MDA-N, with OVCAR-3 ovarian and in the test on SF-268 CNS was > 100 µM throughout. In addition, the TGI in the test on SK-MEL-2 melanoma, with SK-MEL-28 melanoma, with UACC-257 melanoma and in the test on UACC-62 melanoma was > 100 µM in each case.
Turning to `C[C@@]12CCC3C1C=C1C(=O)c4cc(O)ccc4C(=O)[C@]1(O2)[C@@]3(C)C=O`, the TGI in the test on HCC-2998 colon is 9.74 µM; in the test on HCT-116 colon, 12.8 µM; in the test on HS 578T breast, 75 µM; with MDA-N, 12.6 µM; in the test with OVCAR-3 ovarian, 12 µM; with SF-268 CNS, 36.7 µM. Moreover, the concentration for total growth inhibition (TGI) with SK-MEL-2 melanoma was determined as 20.2 µM; in the test on UACC-257 melanoma, 18.7 µM; with UACC-62 melanoma, 16.6 µM.
As for `O=C(NC(CO)Cc1ccc(Oc2cc(CC(CO)NC(=O)OCc3ccccc3)ccc2OC(=O)OCc2ccccc2)cc1)OCc1ccccc1` (configuration not stated), the TGI in the test with HCC-2998 colon is 30.5 µM; with HCT-116 colon it was 40.7 µM; in the test on HS 578T breast, 28.4 µM; in the test with MDA-N, 50.3 µM; in the test with OVCAR-3 ovarian, 45 µM; with SF-268 CNS, 88.9 µM. Also, the TGI came out at 58.3 µM in the test with SK-MEL-2 melanoma, 42.9 µM in the test with SK-MEL-28 melanoma, 51.1 µM in the test with SNB-75 CNS and 29 µM in the test on UACC-257 melanoma.

For the origin of these results see PubChem BioAssay (NCI).
